US20150209794A1, “MODIFIED MICRONIZATION DEVICE AND METHOD THEREOF” (OEKOMINERAL AG, priority 2014, published 2015)

Assay: Amorphous content / crystalline disorder by isothermal calorimetry (IC TAM 3)
Assay type: physicochemical
Conditions: ursolic acid, five repeated micronization procedures
Experimental: 1 kg of each sample of ursolic acid (98% purity, Sigma Aldrich) of an average particle size of […] was micronized five times in devices having different hitting elements. The discs were cooled through a feeder opening with liquid nitrogen spraying to avoid overheating of the heat-sensitive substance.
The micronized samples were analyzed for particle size (Malvern MasterSizer 2000), while the extent of crystalline disorder of particles was quantified with isothermal calorimetry (IC TAM 3, TA instruments, USA). Data was recorded with proprietary software Digitam 4.2.

Amorphous Content (MICRONIZATION-1): 3.68 %, w/w
Amorphous Content (MICRONIZATION-2): 6.12 %, w/w
Amorphous Content (MICRONIZATION-3): 19.23 %, w/w
SMILES: C[C@H]1[C@H](C)CC[C@]2(C(=O)O)CC[C@]3(C)C(=CC[C@@H]4[C@@]5(C)CC[C@H](O)C(C)(C)[C@@H]5CC[C@]43C)[C@H]12 [ursolic acid]
